Experimental data from the supplement of paper PMC13380429.

How the values were obtained:
Conditions in all cases: 72 h
HepG2 [1] = experiment: cell viability relative to DMSO; higher = less toxic
Vero E6 [2] = experiment: as above
Caco-2 [3] = experiment: as above
Calu-3 [4] = experiment: as above
U2OS [5] = experiment: as above
HepG2 [6] = experiment: relative viability EC50 (midpoint between 100% and the lowest measured viability); higher = less toxic
Vero E6 [7] = experiment: as above
Caco-2 [8] = experiment: as above
Calu-3 [9] = experiment: as above
U2OS [10] = experiment: as above
HepG2 [11] = experiment: drug sensitivity score (DSS) for viability; higher = more toxic; extreme values may be limits of the assay
Vero E6 [12] = experiment: as above
Caco-2 [13] = experiment: as above
Calu-3 [14] = experiment: as above
U2OS [15] = experiment: as above

SMILES | cell viability (HepG2 [1]; 1 nM) | cell viability (HepG2 [1]; 10 nM) | cell viability (HepG2 [1]; 100 nM) | cell viability (HepG2 [1]; 1000 nM) | cell viability (HepG2 [1]; 10000 nM) | cell viability (Vero E6 [2]; 1 nM) | cell viability (Vero E6 [2]; 10 nM) | cell viability (Vero E6 [2]; 100 nM) | cell viability (Vero E6 [2]; 1000 nM) | cell viability (Vero E6 [2]; 10000 nM) | cell viability (Caco-2 [3]; 1 nM) | cell viability (Caco-2 [3]; 10 nM) | cell viability (Caco-2 [3]; 100 nM) | cell viability (Caco-2 [3]; 1000 nM) | cell viability (Caco-2 [3]; 10000 nM) | cell viability (Calu-3 [4]; 1 nM) | cell viability (Calu-3 [4]; 10 nM) | cell viability (Calu-3 [4]; 100 nM) | cell viability (Calu-3 [4]; 1000 nM) | cell viability (Calu-3 [4]; 10000 nM) | cell viability (U2OS [5]; 1 nM) | cell viability (U2OS [5]; 10 nM) | cell viability (U2OS [5]; 100 nM) | cell viability (U2OS [5]; 1000 nM) | cell viability (U2OS [5]; 10000 nM) | relative viability EC50 (HepG2 [6]) | relative viability EC50 (Vero E6 [7]) | relative viability EC50 (Caco-2 [8]) | relative viability EC50 (Calu-3 [9]) | relative viability EC50 (U2OS [10]) | drug sensitivity score (HepG2 [11]) | drug sensitivity score (Vero E6 [12]) | drug sensitivity score (Caco-2 [13]) | drug sensitivity score (Calu-3 [14]) | drug sensitivity score (U2OS [15])
CCCC[C@H](NC(=O)[C@@H]1[C@@H]2[C@H](CN1C(=O)[C@@H](NC(=O)NC1(CS(=O)(=O)C(C)(C)C)CCCCC1)C(C)(C)C)C2(C)C)C(=O)C(=O)NC1CC1 [narlaprevir] | 102% | 112% | 96.3% | 103% | 94.7% | 98.1% | 100% | 102% | 99.5% | 87.8% | 100% | 96.4% | 102% | 93.8% | 95.5% | 90.9% | 108% | 92.5% | 94.5% | 107% | 104% | 98.8% | 100% | 96.9% | 97.1% | > 10 µM | > 10 µM | > 10 µM | > 10 µM | > 10 µM | 0 | 0.1 | 0 | 0 | 0
CCC[N+]12[C@H](O)[C@@H](CC)[C@@H]3C[C@H]1[C@@H]1N(C)c4ccccc4[C@]14C[C@H]2[C@@H]3[C@H]4O [neo-gilurytmal] | 93.4% | 99.1% | 92.3% | 97.8% | 104% | 100% | 99.4% | 98.4% | 97.4% | 95.7% | 103% | 99.3% | 92.6% | 86.2% | 93.1% | 104% | 98% | 96.4% | 100% | 91.4% | 100% | 95.7% | 101% | 91.5% | 101% | > 10 µM | > 10 µM | > 10 µM | > 10 µM | > 10 µM | 0 | 0 | 1.3 | 0 | 0
NCC(O)c1ccc(O)cc1 (stereo not given) [octopamine] | 91.7% | 103% | 95.9% | 97.5% | 117% | 106% | 96.6% | 101% | 85.1% | 100% | 87.1% | 96.9% | 94% | 100% | 86.1% | 108% | 105% | 93% | 108% | 95.6% | 95.1% | 97.3% | 101% | 96.5% | 95.6% | > 10 µM | > 10 µM | > 10 µM | > 10 µM | > 10 µM | 0 | 0 | 0.1 | 0 | 0
Cn1cnc2c(NCc3ccccc3)nc(NCCO)nc21 [olomoucine] | 106% | 106% | 96.4% | 112% | 114% | 93% | 98.1% | 96% | 99.7% | 104% | 97.5% | 93.3% | 92.5% | 98.7% | 106% | 102% | 97.9% | 96% | 99.9% | 105% | 103% | 101% | 103% | 96.9% | 108% | > 10 µM | > 10 µM | > 10 µM | > 10 µM | > 10 µM | 0 | 0 | 0 | 0 | 0
COc1ccc2ccc(=O)oc2c1CC=C(C)C [osthol] | 96.5% | 105% | 98.8% | 106% | 100% | 95.1% | 94.4% | 95.9% | 93.2% | 99.2% | 94.3% | 95.1% | 94% | 100% | 101% | 86.6% | 98.2% | 104% | 114% | 108% | 92.9% | 100% | 93.3% | 99% | 102% | > 10 µM | > 10 µM | > 10 µM | > 10 µM | > 10 µM | 0 | 0 | 0 | 0 | 0
CC[C@H](C)[C@@H]1NC(=O)[C@H](Cc2ccc(O)cc2)NC(=O)[C@@H](N)CSSC[C@@H](C(=O)N2CCC[C@H]2C(=O)N[C@@H](CC(C)C)C(=O)NCC(N)=O)NC(=O)[C@H](CC(N)=O)NC(=O)[C@H](CCC(N)=O)NC1=O [oxytocin] | 114% | 96.1% | 105% | 87.7% | 99.2% | 106% | 112% | 98.7% | 105% | 99.2% | 95.5% | 122% | 82.2% | 100% | 100% | 92% | 93.8% | 98.9% | 103% | 97% | 98.2% | 99% | 98.3% | 98.5% | 95.7% | > 10 µM | > 10 µM | > 10 µM | > 10 µM | > 10 µM | 0 | 0 | 0 | 0 | 0
